Experimental data as given in US20110015123A1, “Modulation of GLUT4 Gene Promoter activity BY AHNAK” (Technion Research and Developmet Foundation Ltd., priority 2008, published 2011).
Entries after “also recorded” stand apart in the source; their conditions may differ.

Columns and labels:
[1] = tested on: GLUT4 promoter; test: GLUT4-P-Luc promoter reporter (luciferase) assay in primary rat adipocytes (PRA); type: cell-based
From the text: (§1) Expression vectors and luciferase promoter reporters. Expression vectors, pC-DY, pM-DY, and pN-DY, baring the C-terminus, middle domain, and N-terminus of human AHNAK in c-myc-tagged pCDNA3 (Hashimoto, Amagai et al. 1993; Nie, Ning et al. 2000), were a generous gift of Dr. Hashimoto (Department of Dermatology, Kurume University School of Medicine, Kurume, Fukuoka, Japan). The rat GLUT4 promoter (GLUT4-P) reporter and a derived series of progressively 5′-deleted promoter reporters, have been described by us previously (Armoni, Harel et al. 2005). A control synthetic reporter 3×IRS-LUC, containing three repeats of an insulin response element consensus motif in pGL2 was provided by Dr. Eric Tang (Tang, Nunez et al. 1999).
Cell cultures and transient expression assays. […]
(§2) PRA were transfected by electroporation with 2 μg of GLUT4 promoter reporter DNA, 0-5 μg of expression vectors and 0.5 μg of pCMV-β-galactosidase. […] Within each experiment, values were expressed as a percentage of the basal GLUT4 promoter activity, i.e. the activity obtained in cells transfected with promoter reporter alone. Cell viability was assessed by trypan blue exclusion. Each experiment was repeated three to four times, with each sample analyzed in quadruplicates.

[2] = tested on: insulin response element (3×IRS-LUC); test: 3×IRS-LUC synthetic promoter reporter assay in PRA; type: cell-based, rat; conditions: PRA transfected with AHNAK fragments, 24 hrs
From the text: as §1, §2

[3] = tested on: AHNAK; test: Immunofluorescence of AHNAK cellular distribution in HEK cells; type: cell-based, human; conditions: serum free medium, 24 hrs, insulin 100 nM alone or with LY 20 μM
Method: Immunofluorescence Studies—Human embryonic kidney (HEK) cells were plated in 60 mm plates at a density of 500,000 cells/plate. Cells were incubated for 24 h at 37° C. The next day, cells were washed with magnesium-containing phosphate-buffered saline and transferred to serum-deprived medium supplemented with 2% BSA either with or without Insulin (100 nM). After 24 h, the cells were fixed in 4% paraformaldehyde and stained for indirect immunofluorescence using an anti-AHNAK primary antibody (SC 81048), followed by a FITC-conjugated goat anti-mouse secondary antibody. The nuclei were stained by DAPI.

[4] = tested on: GLUT4 promoter; test: GLUT4-P-Luc promoter reporter (luciferase) assay in H9C2 myotubes; type: cell-based, rat; conditions: 0-100 μM arachidonic acid, 24 h
[5] = tested on: GLUT4 protein; test: GLUT4 protein level in PRA by Western immunoblotting; type: cell-based, rat; conditions: NT-transfected PRA, arachidonic acid 100 μM, 24 hrs
Method: AHNAK siRNA. Double-stranded RNAs (dsRNAs) targeting the rat AHNAK were purchased from Dharmacon (Dharmacon, Inc, California, USA). The siRNA (On TARGETplus SMARTpool L-101672-01-0010, Rat Ahnak, XM—574618) used in the experiments is a mixture consisting of the siRNAs of the sequences set forth in SEQ ID NO:1 to SEQ ID NO:8.
PRA were transfected by electroporation with the dsRNA (40 ng in PBS, pH=7.4) as described above. After 24 hrs, cells were harvested and total RNA and protein were obtained. Scrambled non targeting duplex RNA (NT-siRNA) was transfected as control. AHNAK silencing was assessed by QRT-PCR, and normalized to 18S rRNA. GLUT4 expression at protein level was assessed by Western immunoblotting as detailed by us before (Armoni et al., 2002; Armoni et al., 2005).

effect on AHNAK fragment repression of GLUT4-P ([1]; PRA transfected with AHNAK fragments, 24 hrs) | Compound | effect on AHNAK repression of 3×IRS-LUC reporter [2] | AHNAK subcellular distribution [3] | effect on transcription from GLUT4-P [4] | effect on transcription from GLUT4-P ([1]; PRA, ambient arachidonic acid levels, 24 h) | decrease in GLUT4 protein levels [5]
partially rescued the activity | insulin: Insulin purchased from SIGMA, Israel | partially rescued the activity; also recorded: curtailed this repression | most of it translocates to the cytosel | – | – | –
– | CCCCC/C=C\C/C=C\C/C=C\C/C=C\CCCC(=O)O [arachidonic acid] | – | – | dose-dependently repressed transcription from GLUT4-P | dose-dependently repressed transcription from GLUT4-P | ~40%±3
– | O=c1cc(N2CCOCC2)oc2c(-c3ccccc3)cccc12 [LY] | – | AHNAK nuclear re-distribution | – | – | –
